Source: US20080200337A1, “Mixed herbicide compositions for paddy field” (Bayer CropScience, priority 2007, published 2008)

Key:
Format in all cases: in vivo
[1] = system: Monochoria vaginalis Presl; experiment: Weed control, flooded paddy field, treatment at 1 leaf-stage (Test Example 1); settings: after 4 weeks
Experimental: (§1) Carrier: 5 parts by weight of acetone
(§2) Surfactant: one part by weight of benzyloxy polyglycol ether.
(§3) Above described carrier and surfactant are mixed with one part by weight of the active compound ((a) ingredient and (b) ingredient) and the resulting preparation is then diluted with water to obtain given amount of the test drug (the formulation).
(§4) In a greenhouse, seeds or tubers of Echinochloa, Scirpus juncoides Roxburgh, Monochoria vaginalis Presl, annual broad-leaved weeds (Lindernia procumbens Philcox, Lindernia dubia L. Penn., Rotala indica Koehne, Elatine triandra Schk, Ammannia multiflora Roxb.), Cyperus serotinus Rottboel and Sagittaria pygmaea Miq. were inoculated in a 500 cm^2 pot filled with paddy field soil. After 2 leaf-stage of rice were transplanted, water was poured to a depth of about 3 cm. At 1.0 leaf-stage of Echinochloa oryzicola Vasing, a prescribed, diluted solution of the formulation of each active compound and each herbicidal compound in the table was separately or simultaneously applied to the surface of water. After the treatment, the water depth of 3 cm was maintained, and herbicidal effect was examined after 4 weeks. In the assessment of the herbicidal effect and the phytotoxicity, 100% refers to complete death and 0% refers to no effect or no phytotoxicity.

Sagittaria pygmaea Miq. [2] = experiment: as above; settings: after 4 weeks
Experimental: as §1, §2, §3, §4

[3] = system: annual broad-leaved weeds; experiment: as above; settings: after 4 weeks
Experimental: as §1, §2, §3, §4

Echinochloa [4] = experiment: as above; settings: after 4 weeks
Experimental: as §1, §2, §3, §4

[5] = system: Scirpus juncoides Roxburgh; experiment: as above; settings: after 4 weeks
Experimental: as §1, §2, §3, §4

[6] = system: Cyperus serotinus Rottboel; experiment: as above; settings: after 4 weeks
Experimental: as §1, §2, §3, §4

transplanted rice [7] = experiment: Phytotoxicity, flooded paddy field, treatment at 1 leaf-stage (Test Example 1)
Experimental: as §1, §2, §3, §4

transplanted rice [8] = experiment: Phytotoxicity, flooded paddy field, treatment at 3 leaf-stage (Test Example 2)
Experimental: as §1, §2, §3
as §4, with “Echinochloa, Cyperus difformis L.,” for “Echinochloa,”, “3.0” for “1.0”, “Echinochloa,” for “Echinochloa oryzicola Vasing,”

[9] = system: Monochoria vaginalis Presl; experiment: Weed control, flooded paddy field, treatment at 3 leaf-stage (Test Example 2); settings: after 4 weeks
Experimental: as §1, §2, §3
as §4, with “Echinochloa, Cyperus difformis L.,” for “Echinochloa,”, “3.0” for “1.0”, “Echinochloa,” for “Echinochloa oryzicola Vasing,”

Sagittaria pygmaea Miq. [10] = experiment: as above; settings: after 4 weeks
Experimental: as §1, §2, §3
as §4, with “Echinochloa, Cyperus difformis L.,” for “Echinochloa,”, “3.0” for “1.0”, “Echinochloa,” for “Echinochloa oryzicola Vasing,”

[11] = system: annual broad-leaved weeds; experiment: as above; settings: after 4 weeks
Experimental: as §1, §2, §3
as §4, with “Echinochloa, Cyperus difformis L.,” for “Echinochloa,”, “3.0” for “1.0”, “Echinochloa,” for “Echinochloa oryzicola Vasing,”

Echinochloa [12] = experiment: as above; settings: after 4 weeks
Experimental: as §1, §2, §3
as §4, with “Echinochloa, Cyperus difformis L.,” for “Echinochloa,”, “3.0” for “1.0”, “Echinochloa,” for “Echinochloa oryzicola Vasing,”

[13] = system: Scirpus juncoides Roxburgh; experiment: as above; settings: after 4 weeks
Experimental: as §1, §2, §3
as §4, with “Echinochloa, Cyperus difformis L.,” for “Echinochloa,”, “3.0” for “1.0”, “Echinochloa,” for “Echinochloa oryzicola Vasing,”

[14] = system: Cyperus serotinus Rottboel; experiment: as above; settings: after 4 weeks
Experimental: as §1, §2, §3
as §4, with “Echinochloa, Cyperus difformis L.,” for “Echinochloa,”, “3.0” for “1.0”, “Echinochloa,” for “Echinochloa oryzicola Vasing,”

Cc1ccc(C(=O)COc2c(C(=O)c3ccc(Cl)c(C)c3Cl)c(C)nn2C)cc1 [(b-3), benzofenap]
Herbicidal effect (%) MOOVP ([1]; 800 g ai/ha): 80% | Herbicidal effect (%) SAGPY (Sagittaria pygmaea Miq. [2]; 800 g ai/ha): 70% | Herbicidal effect (%) BBBBB ([3]; 800 g ai/ha): 100% | Herbicidal effect (%) ECHSS (Echinochloa [4]; 800 g ai/ha): 80% | Herbicidal effect (%) SCPSS ([5]; 800 g ai/ha): 70% | Herbicidal effect (%) CYPSEE ([6]; 800 g ai/ha): 20% | Phytotoxicity (%) ORYSP (transplanted rice [7]; 800 g ai/ha, treatment at 1 leaf-stage, after 4 weeks): 0% | Phytotoxicity (%) ORYSP (transplanted rice [8]; rice, in vivo, 4 weeks): 0% | Herbicidal effect (%) MOOVP ([9]; 800 g ai/ha): 50% | Herbicidal effect (%) SAGPY (Sagittaria pygmaea Miq. [10]; 800 g ai/ha): 60% | Herbicidal effect (%) BBBBB ([11]; 800 g ai/ha): 70% | Herbicidal effect (%) ECHSS (Echinochloa [12]; 800 g ai/ha): 10% | Herbicidal effect (%) SCPSS ([13]; 800 g ai/ha): 0% | Herbicidal effect (%) CYPSEE ([14]; 800 g ai/ha): 0%

COC(=O)c1ccccc1CS(=O)(=O)NC(=O)Nc1nc(OC)cc(OC)n1 [(b-4), bensulfuron methyl]
Herbicidal effect (%) MOOVP ([1]; 50 g ai/ha): 90% | Herbicidal effect (%) SAGPY (Sagittaria pygmaea Miq. [2]; 50 g ai/ha): 90% | Herbicidal effect (%) BBBBB ([3]; 50 g ai/ha): 90% | Herbicidal effect (%) ECHSS (Echinochloa [4]; 50 g ai/ha): 50% | Herbicidal effect (%) SCPSS ([5]; 50 g ai/ha): 90% | Herbicidal effect (%) CYPSEE ([6]; 50 g ai/ha): 85% | Phytotoxicity (%) ORYSP (transplanted rice [7]; rice, in vivo, 4 weeks): 0% | Phytotoxicity (%) ORYSP (transplanted rice [8]; rice, in vivo, 4 weeks): 0% | Herbicidal effect (%) MOOVP ([9]; 50 g ai/ha): 90% | Herbicidal effect (%) SAGPY (Sagittaria pygmaea Miq. [10]; 50 g ai/ha): 80% | Herbicidal effect (%) BBBBB ([11]; 50 g ai/ha): 90% | Herbicidal effect (%) ECHSS (Echinochloa [12]; 50 g ai/ha): 20% | Herbicidal effect (%) SCPSS ([13]; 50 g ai/ha): 85% | Herbicidal effect (%) CYPSEE ([14]; 50 g ai/ha): 80%

CCN(C(=O)n1nnn(-c2ccccc2Cl)c1=O)C1CCCCC1 [(b-6), fentrazamide]
Herbicidal effect (%) MOOVP ([1]; 300 g ai/ha): 95% | Herbicidal effect (%) SAGPY (Sagittaria pygmaea Miq. [2]; 300 g ai/ha): 50% | Herbicidal effect (%) BBBBB ([3]; 300 g ai/ha): 85% | Herbicidal effect (%) ECHSS (Echinochloa [4]; 300 g ai/ha): 95% | Herbicidal effect (%) SCPSS ([5]; 300 g ai/ha): 95% | Herbicidal effect (%) CYPSEE ([6]; 300 g ai/ha): 95% | Phytotoxicity (%) ORYSP (transplanted rice [7]; 300 g ai/ha, treatment at 1 leaf-stage, after 4 weeks): 0% | Phytotoxicity (%) ORYSP (transplanted rice [8]; 300 g ai/ha, treatment at 3 leaf-stage, after 4 weeks): 0% | Herbicidal effect (%) MOOVP ([9]; 300 g ai/ha): 55% | Herbicidal effect (%) SAGPY (Sagittaria pygmaea Miq. [10]; 300 g ai/ha): 50% | Herbicidal effect (%) BBBBB ([11]; 300 g ai/ha): 55% | Herbicidal effect (%) ECHSS (Echinochloa [12]; 300 g ai/ha): 69% | Herbicidal effect (%) SCPSS ([13]; 300 g ai/ha): 80% | Herbicidal effect (%) CYPSEE ([14]; 300 g ai/ha): 75%

CS(=O)(=O)c1ccc(C(=O)C2C(=O)CCCC2=O)c(Cl)c1COCC1CCCO1 (stereo not drawn) [(b-7), 2-{2-chloro-4-mesyl-3-[(tetrahydrofuran-2-ylmethoxy)methyl]-benzoyl}-cyclohexan-1,3-dione]
Herbicidal effect (%) MOOVP ([1]; 200 g ai/ha): 90% | Herbicidal effect (%) SAGPY (Sagittaria pygmaea Miq. [2]; 200 g ai/ha): 90% | Herbicidal effect (%) BBBBB ([3]; 200 g ai/ha): 90% | Herbicidal effect (%) ECHSS (Echinochloa [4]; 200 g ai/ha): 95% | Herbicidal effect (%) SCPSS ([5]; 200 g ai/ha): 95% | Herbicidal effect (%) CYPSEE ([6]; 200 g ai/ha): 90% | Phytotoxicity (%) ORYSP (transplanted rice [7]; 200 g ai/ha, treatment at 1 leaf-stage, after 4 weeks): 0% | Phytotoxicity (%) ORYSP (transplanted rice [8]; rice, in vivo, 4 weeks): 0% | Herbicidal effect (%) MOOVP ([9]; 200 g ai/ha): 95% | Herbicidal effect (%) SAGPY (Sagittaria pygmaea Miq. [10]; 200 g ai/ha): 80% | Herbicidal effect (%) ECHSS (Echinochloa [12]; 200 g ai/ha): 70% | Herbicidal effect (%) SCPSS ([13]; 200 g ai/ha): 88% | Herbicidal effect (%) CYPSEE ([14]; 200 g ai/ha): 70%

COCc1cccc(C(O)c2nc(OC)cc(OC)n2)c1NS(=O)(=O)C(F)F (stereo not drawn) [(b-8), pyrimisulfan]
Herbicidal effect (%) MOOVP ([1]; 50 g ai/ha): 95% | Herbicidal effect (%) SAGPY (Sagittaria pygmaea Miq. [2]; 50 g ai/ha): 90% | Herbicidal effect (%) BBBBB ([3]; 50 g ai/ha): 95% | Herbicidal effect (%) ECHSS (Echinochloa [4]; 50 g ai/ha): 95% | Herbicidal effect (%) SCPSS ([5]; 50 g ai/ha): 95% | Herbicidal effect (%) CYPSEE ([6]; 50 g ai/ha): 95% | Phytotoxicity (%) ORYSP (transplanted rice [7]; 50 g ai/ha, treatment at 1 leaf-stage, after 4 weeks): 15% | Phytotoxicity (%) ORYSP (transplanted rice [8]; 50 g ai/ha, treatment at 3 leaf-stage, after 4 weeks): 5% | Herbicidal effect (%) MOOVP ([9]; 50 g ai/ha): 95% | Herbicidal effect (%) SAGPY (Sagittaria pygmaea Miq. [10]; 50 g ai/ha): 85% | Herbicidal effect (%) BBBBB ([11]; 50 g ai/ha): 85% | Herbicidal effect (%) ECHSS (Echinochloa [12]; 50 g ai/ha): 85% | Herbicidal effect (%) SCPSS ([13]; 50 g ai/ha): 90% | Herbicidal effect (%) CYPSEE ([14]; 50 g ai/ha): 90%
